# Data from the OPERA property sets (Mansouri et al. 2018).
row,Structure (SMILES),logP
1,C1CC2CC1C1OC21 (stereo unspecified),1.58
2,OC1CC2CCC1C2 (stereo unspecified),1.45
3,OC1C2CC3C1C3C2O (stereo unspecified),-0.42
4,OC(C1CC1)C1CC1,1.07
5,O=C1C2CC3C(C2)C13,0.81
6,BrC1C2CC3C(C2)C13 (stereo unspecified),3.11
7,OC1CC2CCC1C2O (stereo unspecified),0.4
8,C1=CC2C=CC1C2,2.67
9,C1C2C3C2C2C1C32 (stereo unspecified),2.9

# Second part, the molecule after the results:
row,logP,Structure (SMILES)
1,3.54,BrC1CC2CCC1C2 (stereo unspecified)
2,1.99,OCC1CC2CCC1C2 (stereo unspecified)
3,3.35,ClC1CC2CCC1C2 (stereo unspecified)
4,0.4,OC1C2CCC(C2)C1O (stereo unspecified)
5,3.78,C1CC2CCC1C2
6,3.24,C1=CC2CCC1C2
7,0.99,OC1CC2C=CC1C2 (stereo unspecified)
